Measurements published in PubChem BioAssay (NCI).
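Growth conditions: 96-well plates. Treatment: test compound, 48 hours, 5 concentrations. Analysis: linear interpolation between bracketing concentrations; unreached endpoints set to highest concentration. At the TGI there is no net growth.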

How the values were obtained:
Experiment in all cases: NCI-60 cell line screen, 48 h
[1] = system: NCI/ADR-RES ovarian
[2] = system: HS 578T breast
[3] = system: SF-295 CNS
[4] = system: 786-0 renal
[5] = system: CAKI-1 renal
[6] = system: LOX IMVI melanoma
[7] = system: HOP-62 NSCLC
[8] = system: SK-MEL-2 melanoma
[9] = system: M14 melanoma
[10] = system: SW-620 colon
[11] = system: SN12C renal
[12] = system: MALME-3M melanoma
[13] = system: SK-OV-3 ovarian
[14] = system: UACC-62 melanoma
[15] = system: SK-MEL-28 melanoma
[16] = system: A549 NSCLC
[17] = system: MCF7 breast
[18] = system: HL-60(TB) leukemia
[19] = system: RPMI-8226 leukemia
[20] = system: DU-145 prostate

Row | Compound | TGI [1] [µM] | TGI [2] [µM] | TGI [3] [µM] | TGI [4] [µM] | TGI [5] [µM] | TGI [6] [µM] | TGI [7] [µM] | TGI [8] [µM] | TGI [9] [µM] | TGI [10] [µM] | TGI [11] [µM] | TGI [12] [µM] | TGI [13] [µM] | TGI [14] [µM] | TGI [15] [µM] | TGI [16] [µM] | TGI [17] [µM] | TGI [18] [µM] | TGI [19] [µM] | TGI [20] [µM]
1 | O=c1oc2ccccc2cc1-c1csc(Nc2cc(Cl)cc(Cl)c2)n1 | > 83.7 | 98.1 | > 44.5 | 12.9 | > 32.4 | 7.62 | 17.9 | > 100 | > 72.2 | 50.9 | > 44.8 | 64.8 | > 49.5 | > 100 | 59 | 16.9 | 61.4 | > 100 | > 100 | > 100
2 | CN(CCCCN1CCCC1)CCCCN(C)C(=O)Cc1ccc(Cl)c(Cl)c1 | > 100 | 54.5 | 38 | 25.7 | 39.2 | 25.2 | 34.8 | 19.7 | 35.7 | 38.4 | 36.8 | 34.4 | 47.2 | 12.3 | 3.88 | 31.2 | 28.3 | 36.1 | 23.9 | 72
3 | N#CC(c1ccccc1)N(CCc1ccccc1)C(=O)c1ccccc1 (stereo not given) | > 100 | 86.3 | > 100 | > 91.4 | > 100 | > 100 | > 85.8 | > 100 | > 100 | > 100 | > 100 | > 100 | > 100 | > 100 | > 100 | > 100 | > 100 | > 100 | > 100 | > 100
4 | COc1ccc2c(c1)CCC(CN1CCN(CCOC(c3ccc(F)cc3)c3ccc(F)cc3)CC1)C2O (stereo not given) | 25.4 | 38.7 | 34.5 | 25.2 | 32 | 29.8 | 34.5 | 30.8 | 25.5 | > 100 | 34 | 28 | 31.5 | 24.2 | 30 | 32.7 | 39.7 | 14.6 | 35.4 | 34.8
5 | CC(=O)Nc1ccc(-c2nc3ccccc3s2)cc1Cl | > 100 | 93.3 | > 100 | > 100 | > 100 | > 100 | > 100 | > 100 | > 100 | > 100 | > 100 | > 100 | > 100 | > 100 | > 100 | > 100 | > 100 | > 100 | > 100 | > 92.4
6 | C=CCOc1ccc(C2(c3ccc(OCC=C)cc3)C(=O)Nc3ccccc32)cc1 | > 10 | 6.38 | > 10 | > 10 | > 10 | > 10 | > 10 | > 10 | > 10 | > 10 | > 10 | > 10 | > 10 | > 10 | > 10 | > 10 | > 10 | > 10 | > 10 | > 10
